In PubChem BioAssay AID330 (DTP/NCI, 2004):
Several values for one entry are separate records, joined by “and”; a condition that tells them apart may be missing. Equal values may be shown once. Toxic doses and inconclusive results are not listed.

Tested on: P388 leukemia ip, CD2F1 mice, survival T/C
Test: NCI In Vivo Anticancer Drug Screen. Data for tumor model P388 Leukemia (intraperitoneal) in CD2F1 (CDF1) mice
Settings: endpoint: median survival time, higher = longer survival
Method in brief: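 Mice carrying the transplanted tumor received test compound or vehicle. Survival was recorded in each group, and the value is the treated-group measurement divided by that of the vehicle-treated control group.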

[1] = dose: 200.0 mg/kg/injection, schedule: Q01DX005 (ip), vehicle: saline with Tween-80
[2] = dose: 50.0 mg/kg/injection, schedule: Q01DX005 (ip), vehicle: saline with Tween-80
[3] = dose: 100.0 mg/kg/injection, schedule: Q01DX005 (ip), vehicle: saline with Tween-80

N#C/C(=C\c1cccs1)c1ccccc1
T/C (dose: 50.0 mg/kg/injection, schedule: Q01DX009 (ip), vehicle: saline with Tween-80): 102 % of control | T/C (dose: 100.0 mg/kg/injection, schedule: Q01DX009 (ip), vehicle: saline with Tween-80): 103 % of control | T/C (dose: 200.0 mg/kg/injection, schedule: Q01DX009 (ip), vehicle: saline with Tween-80): 100 % of control | T/C (dose: 400.0 mg/kg/injection, schedule: Q01DX009 (ip), vehicle: saline with Tween-80): 105 % of control

CC[C@@]1(O)C(=O)OCc2c1cc1n(c2=O)Cc2cc3c(OC)cccc3nc2-1
T/C (dose: 0.39 mg/kg/injection, schedule: Q04DX003 (ip), vehicle: other): 115 % of control | T/C (dose: 1.0 mg/kg/injection, schedule: Q01DX009 (ip), vehicle: saline with Tween-80): 217 % of control | T/C (dose: 1.5 mg/kg/injection, schedule: Q01DX009 (ip), vehicle: saline with Tween-80): 181 % of control and 192 % of control | T/C (dose: 2.25 mg/kg/injection, schedule: Q01DX009 (ip), vehicle: saline with Tween-80): 100 % of control | T/C (dose: 3.0 mg/kg/injection, schedule: Q01DX009 (ip), vehicle: saline with Tween-80): 103 % of control | T/C (dose: 3.13 mg/kg/injection, schedule: Q04DX003 (ip), vehicle: other): 191 % of control | T/C (dose: 6.25 mg/kg/injection, schedule: Q04DX003 (ip), vehicle: other): 90 % of control

Fc1cccc(Cl)c1C(Nc1nncs1)Nc1nncs1
T/C (dose: 120.0 mg/kg/injection, schedule: Q01DX005 (ip), vehicle: Klucel (hydroxypropylcellulose) (HPC)): 171 % of control | T/C (dose: 240.0 mg/kg/injection, schedule: Q01DX005 (ip), vehicle: Klucel (hydroxypropylcellulose) (HPC)): 187 % of control and 194 % of control

CCOc1ccc(C(C)c2cc3c(cc2OCC)OCO3)cc1 (stereo unspecified)
T/C (dose: 25.0 mg/kg/injection, schedule: Q01DX005 (ip), vehicle: saline with Tween-80): 120 % of control | T/C [1]: 157 % of control

O=[n+]1c2ccccc2n([O-])c2cn(-c3ccccc3)c(-c3ccccc3)c21
T/C [2]: 100 % of control | T/C [3]: 100 % of control | T/C [1]: 101 % of control

CC(C)COC1CCc2ncccc2O1 (stereo unspecified)
T/C (dose: 50.0 mg/kg/injection, schedule: Q01DX009 (ip), vehicle: saline): 104 % of control | T/C (dose: 100.0 mg/kg/injection, schedule: Q01DX009 (ip), vehicle: saline): 104 % of control | T/C (dose: 200.0 mg/kg/injection, schedule: Q01DX009 (ip), vehicle: saline): 103 % of control

Cc1nc2nc3n(c(=O)c2nc1C)CCS3
T/C (dose: 100.0 mg/kg/injection, schedule: Q01DX001 (ip), vehicle: saline): 103 % of control | T/C (dose: 200.0 mg/kg/injection, schedule: Q01DX001 (ip), vehicle: saline): 108 % of control | T/C (dose: 400.0 mg/kg/injection, schedule: Q01DX001 (ip), vehicle: saline): 102 % of control

Cc1[nH]c2cc(Br)c(Br)cc2c1/C=N/NC(N)=S
T/C (dose: 50.0 mg/kg/injection, schedule: Q01DX001 (ip), vehicle: Klucel (hydroxypropylcellulose) (HPC)): 100 % of control | T/C (dose: 100.0 mg/kg/injection, schedule: Q01DX001 (ip), vehicle: Klucel (hydroxypropylcellulose) (HPC)): 96 % of control | T/C (dose: 200.0 mg/kg/injection, schedule: Q01DX001 (ip), vehicle: Klucel (hydroxypropylcellulose) (HPC)): 92 % of control

COc1cc(-c2ccc(N=Nc3ccc(N)nc3N)c(OC)c2)ccc1N=Nc1ccc(N)nc1N
T/C [2]: 101 % of control | T/C [3]: 104 % of control | T/C [1]: 90 % of control

CC(N)/C(N)=N/O (stereo unspecified)
T/C (dose: 50.0 mg/kg/injection, schedule: Q01DX005 (ip), vehicle: saline): 99 % of control | T/C (dose: 100.0 mg/kg/injection, schedule: Q01DX005 (ip), vehicle: saline): 100 % of control | T/C (dose: 200.0 mg/kg/injection, schedule: Q01DX005 (ip), vehicle: saline): 110 % of control

O=C1C=CC(=CC=C2C=CN(CCCCCCCCCCCO)C=C2)C=C1
T/C (dose: 1.56 mg/kg/injection, schedule: Q01DX005 (ip), vehicle: saline with Tween-80): 111 % of control | T/C (dose: 3.12 mg/kg/injection, schedule: Q01DX005 (ip), vehicle: saline with Tween-80): 114 % of control and 118 % of control | T/C (dose: 6.25 mg/kg/injection, schedule: Q01DX005 (ip), vehicle: saline with Tween-80): 121 % of control | T/C (dose: 7.5 mg/kg/injection, schedule: Q01DX005 (ip), vehicle: saline with Tween-80): 109 % of control | T/C (dose: 12.5 mg/kg/injection, schedule: Q01DX005 (ip), vehicle: saline with Tween-80): 118 % of control and 121 % of control | T/C (dose: 15.0 mg/kg/injection, schedule: Q01DX005 (ip), vehicle: saline with Tween-80): 109 % of control and 111 % of control | T/C (dose: 30.0 mg/kg/injection, schedule: Q01DX005 (ip), vehicle: saline with Tween-80): 118 % of control | T/C [2]: 100 % of control
